Test results taken from patent US20240131032A1, “AN ACTIVITY-GUIDED MAP OF ELECTROPHILE-CYSTEINE INTERACTIONS IN PRIMARY HUMAN IMMUNE CELLS” (The Scripps Research Institute, priority 2019, published 2024).

Molecular target: T1, BIRC3 (Homo sapiens, UniProt Q13489)
T1 construct: endogenous in cells; host or cells: primary human T cells
Test: isoTOP-ABPP and TMT-ABPP cysteine engagement, BIRC3
Assay type: binding
Protocol: Activated or expanded T cells were re-suspended in RPMI media supplemented with 10% FBS, L-glutamine (2 mM), penicillin (100 U/mL), and streptomycin (100 μg/mL) at 2×10^6 cells/mL. The compounds were added to cells as 1000×DMSO stocks and mixed well with the media by pipetting up and down after addition. The cells were kept at 37° C. in 5% CO2 containing incubators for 3 h (or otherwise specified times), then pelleted by centrifugation (524 g, 5 min, 4° C.), washed with cold PBS (10 mL) and transferred to Eppendorf tubes (1 mL PBS). The cells were pelleted again (524 g, 5 min, 4° C.), flash-frozen, and kept at −80° C. until further analysis.
Activated or expanded primary human T cells were re-suspended in RPMI (1×10^6 cells/mL) containing 10% fetal bovine serum (FBS), penicillin (100 U/mL), streptomycin ([…]), and L-glutamine (2 mM). […] The resulting proteomes were analyzed by competitive isotopic Tandem Orthogonal Proteolysis Activity-Based Protein Profiling (isoTOP-ABPP). […]
The heavy/light isoTOP-ABPP ratios (R values) for each unique peptide (DMSO/compound treated) were quantified with in-house CIMAGE software (Weerapana et al., 2010) using default parameters (3 MS1 acquisitions per peak and signal to noise threshold set to 2.5). Site-specific engagement of cysteine residues was assessed by blockade of IA-alkyne probe labeling. […]

T1 sequence (Q13489 whole entry): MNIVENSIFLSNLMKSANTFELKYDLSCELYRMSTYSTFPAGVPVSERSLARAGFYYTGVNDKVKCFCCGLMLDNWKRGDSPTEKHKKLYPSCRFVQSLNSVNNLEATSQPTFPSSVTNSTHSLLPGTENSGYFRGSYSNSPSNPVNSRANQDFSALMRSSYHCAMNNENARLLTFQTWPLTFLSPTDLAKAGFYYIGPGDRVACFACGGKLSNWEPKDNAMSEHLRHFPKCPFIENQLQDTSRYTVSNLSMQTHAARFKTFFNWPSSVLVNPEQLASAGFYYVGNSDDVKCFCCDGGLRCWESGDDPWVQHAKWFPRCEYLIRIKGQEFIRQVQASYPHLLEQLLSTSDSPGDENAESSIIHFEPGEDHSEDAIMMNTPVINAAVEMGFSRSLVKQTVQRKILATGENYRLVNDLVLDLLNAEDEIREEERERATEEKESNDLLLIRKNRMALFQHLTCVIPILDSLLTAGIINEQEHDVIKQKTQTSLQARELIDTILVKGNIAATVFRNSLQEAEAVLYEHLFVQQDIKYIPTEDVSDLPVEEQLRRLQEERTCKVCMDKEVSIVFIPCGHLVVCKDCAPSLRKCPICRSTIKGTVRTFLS

SMILES: O=C(CCl)N1CCN(S(=O)(=O)c2ccc(-c3ccncc3)cc2)CC1 [EV-3]
- engagement of C28 of BIRC3: unique target
